According to ChEMBL document CHEMBL3352701, “Discovery of a 1,2-bis(3-indolyl)ethane that selectively inhibits the pyruvate kinase of methicillin-resistant Staphylococcus aureus over human isoforms” (Bioorg Med Chem Lett, 2014):
Converted amounts (≈) assume the structure as drawn.

Key:
[1] = target: T1, Pyruvate kinase (Staphylococcus aureus (strain MRSA252)) (UniProt Q6GG09); assay: Inhibition of purified methicillin-resistant Staphylococcus aureus N-terminal His-tagged pyruvate kinase at 50 uM by LDH-coupled continuous assay
T1 sequence (whole entry): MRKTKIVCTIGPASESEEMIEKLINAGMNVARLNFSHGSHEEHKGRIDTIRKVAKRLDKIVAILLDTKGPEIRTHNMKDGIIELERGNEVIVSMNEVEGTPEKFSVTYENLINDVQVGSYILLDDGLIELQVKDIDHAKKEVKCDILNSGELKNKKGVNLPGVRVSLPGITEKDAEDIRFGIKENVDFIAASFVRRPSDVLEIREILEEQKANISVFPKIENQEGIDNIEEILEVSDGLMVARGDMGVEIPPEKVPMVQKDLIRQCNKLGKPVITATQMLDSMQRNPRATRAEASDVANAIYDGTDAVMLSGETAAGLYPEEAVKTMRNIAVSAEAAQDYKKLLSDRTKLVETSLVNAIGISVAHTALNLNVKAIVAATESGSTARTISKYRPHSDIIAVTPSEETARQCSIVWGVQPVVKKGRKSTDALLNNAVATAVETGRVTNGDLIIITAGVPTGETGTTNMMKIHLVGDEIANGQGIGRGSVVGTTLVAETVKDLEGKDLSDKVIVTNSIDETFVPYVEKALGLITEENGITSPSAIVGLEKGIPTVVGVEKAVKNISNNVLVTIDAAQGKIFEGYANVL

[2] = target: T2, Pyruvate kinase PKM (Homo sapiens, UniProt P14618); assay: Inhibition of purified human N-terminal His-tagged PK-M1 at 50 uM by LDH-coupled continuous assay
Target sequence in this assay (P14618 2-531 limits assumed): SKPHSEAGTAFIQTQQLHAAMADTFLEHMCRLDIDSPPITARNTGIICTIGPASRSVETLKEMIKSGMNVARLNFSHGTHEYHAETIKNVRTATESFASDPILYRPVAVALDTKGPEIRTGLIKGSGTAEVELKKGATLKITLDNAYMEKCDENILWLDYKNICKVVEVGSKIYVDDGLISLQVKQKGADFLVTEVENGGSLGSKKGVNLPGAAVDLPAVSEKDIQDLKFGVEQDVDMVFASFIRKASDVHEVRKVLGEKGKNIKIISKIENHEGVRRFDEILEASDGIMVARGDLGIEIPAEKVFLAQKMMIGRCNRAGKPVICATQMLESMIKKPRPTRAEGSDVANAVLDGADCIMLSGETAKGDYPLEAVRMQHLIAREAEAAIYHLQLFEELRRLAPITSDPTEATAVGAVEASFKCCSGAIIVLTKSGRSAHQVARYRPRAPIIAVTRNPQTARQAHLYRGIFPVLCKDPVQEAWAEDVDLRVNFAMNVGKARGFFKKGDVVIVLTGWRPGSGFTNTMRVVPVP

[3] = target: T3, Pyruvate kinase PKLR (Homo sapiens, UniProt P30613); assay: Inhibition of purified human N-terminal His-tagged PK-L at 50 uM by LDH-coupled continuous assay
Target sequence in this assay (P30613 whole entry, looked up): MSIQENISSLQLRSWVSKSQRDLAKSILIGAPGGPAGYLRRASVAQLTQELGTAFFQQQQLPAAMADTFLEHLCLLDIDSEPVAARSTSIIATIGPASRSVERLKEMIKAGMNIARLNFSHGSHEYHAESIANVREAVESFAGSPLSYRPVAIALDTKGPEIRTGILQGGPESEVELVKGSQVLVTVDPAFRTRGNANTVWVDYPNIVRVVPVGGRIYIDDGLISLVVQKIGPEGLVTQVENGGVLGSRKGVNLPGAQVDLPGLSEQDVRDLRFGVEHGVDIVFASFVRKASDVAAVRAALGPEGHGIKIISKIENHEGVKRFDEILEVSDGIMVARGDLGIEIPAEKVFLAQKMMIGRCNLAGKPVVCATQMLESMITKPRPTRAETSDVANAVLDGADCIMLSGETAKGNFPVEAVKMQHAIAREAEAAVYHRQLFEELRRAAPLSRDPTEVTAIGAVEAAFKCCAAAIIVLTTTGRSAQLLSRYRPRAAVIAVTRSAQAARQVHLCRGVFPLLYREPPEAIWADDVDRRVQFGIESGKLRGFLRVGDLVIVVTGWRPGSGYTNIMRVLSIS

[4] = target: T4, Pyruvate kinase (Staphylococcus aureus (strain MRSA252), UniProt Q6GG09); assay: Inhibition of purified methicillin-resistant Staphylococcus aureus N-terminal His-tagged pyruvate kinase by LDH-coupled continuous assay
T4 sequence (Q6GG09 whole entry): T1 sequence (whole entry)

[5] = target: T3, Pyruvate kinase PKLR; assay: Inhibition of purified human N-terminal His-tagged PK-R at 50 uM by LDH-coupled continuous assay
Target sequence in this assay (P30613 whole entry, looked up): as above

[6] = target: T2, Pyruvate kinase PKM; assay: Inhibition of purified human N-terminal His-tagged PK-M2 at 50 uM by LDH-coupled continuous assay
Target sequence in this assay (P14618 2-531 limits assumed): as the sequence (P14618 2-531 limits assumed) above

[7] = tested on: Staphylococcus aureus; assay: Antimicrobial activity against Staphylococcus aureus ATCC 29213 after 24 hrs by CLSI microtiter method; format: functional; conditions: ATCC 29213, 24 h
[8] = target: T2, Pyruvate kinase PKM; assay: Inhibition of purified human N-terminal His-tagged PK-M1 at 100 uM by LDH-coupled continuous assay
Target sequence in this assay (P14618 2-531 limits assumed): as above

[9] = target: T2, Pyruvate kinase PKM; assay: Inhibition of purified human N-terminal His-tagged PK-M2 at 100 uM by LDH-coupled continuous assay
Target sequence in this assay (P14618 2-531 limits assumed): as above

[10] = target: T1, Pyruvate kinase (Staphylococcus aureus (strain MRSA252)); assay: Inhibition of purified methicillin-resistant Staphylococcus aureus N-terminal His-tagged pyruvate kinase at 100 uM by LDH-coupled continuous assay
[11] = target: T3, Pyruvate kinase PKLR; assay: Inhibition of purified human N-terminal His-tagged PK-L at 100 uM by LDH-coupled continuous assay
Target sequence in this assay (P30613 whole entry, looked up): as the sequence (P30613 whole entry, looked up) above

[12] = target: T3, Pyruvate kinase PKLR; assay: Inhibition of purified human N-terminal His-tagged PK-R at 100 uM by LDH-coupled continuous assay
Target sequence in this assay (P30613 whole entry, looked up): as above

[13] = target: T3, Pyruvate kinase PKLR; assay: Inhibition of purified human N-terminal His-tagged PK-L at 150 uM by LDH-coupled continuous assay
Target sequence in this assay (P30613 whole entry, looked up): as above

[14] = target: T1, Pyruvate kinase (Staphylococcus aureus (strain MRSA252)); assay: Inhibition of purified methicillin-resistant Staphylococcus aureus N-terminal His-tagged pyruvate kinase at 150 uM by LDH-coupled continuous assay
[15] = target: T3, Pyruvate kinase PKLR; assay: Inhibition of purified human N-terminal His-tagged PK-R at 150 uM by LDH-coupled continuous assay
Target sequence in this assay (P30613 whole entry, looked up): as above

[16] = target: T2, Pyruvate kinase PKM; assay: Inhibition of purified human N-terminal His-tagged PK-M2 at 150 uM by LDH-coupled continuous assay
Target sequence in this assay (P14618 2-531 limits assumed): as the sequence (P14618 2-531 limits assumed) above

[17] = target: T2, Pyruvate kinase PKM; assay: Inhibition of purified human N-terminal His-tagged PK-M1 at 150 uM by LDH-coupled continuous assay
Target sequence in this assay (P14618 2-531 limits assumed): as above

[18] = target: T3, Pyruvate kinase PKLR; assay: Inhibition of purified human N-terminal His-tagged PK-L at 40 uM by LDH-coupled continuous assay
[19] = target: T3, Pyruvate kinase PKLR; assay: Inhibition of purified human N-terminal His-tagged PK-R at 40 uM by LDH-coupled continuous assay
[20] = target: T2, Pyruvate kinase PKM; assay: Inhibition of purified human N-terminal His-tagged PK-M1 at 40 uM by LDH-coupled continuous assay
[21] = target: T1, Pyruvate kinase (Staphylococcus aureus (strain MRSA252)); conditions: 40 uM
Description: Inhibition of purified methicillin-resistant Staphylococcus aureus N-terminal His-tagged pyruvate kinase at 40 uM by LDH-coupled continuous assay

[22] = target: T2, Pyruvate kinase PKM; assay: Inhibition of purified human N-terminal His-tagged PK-M2 at 40 uM by LDH-coupled continuous assay
[23] = target: T3, Pyruvate kinase PKLR; assay: Inhibition of purified human N-terminal His-tagged PK-L by LDH-coupled continuous assay
Target sequence in this assay (P30613 whole entry): as the sequence (P30613 whole entry, looked up) above

[24] = target: T1, Pyruvate kinase (Staphylococcus aureus (strain MRSA252)); assay: Inhibition of purified methicillin-resistant Staphylococcus aureus N-terminal His-tagged pyruvate kinase at 10 uM by LDH-coupled continuous assay
[25] = target: T2, Pyruvate kinase PKM; assay: Inhibition of purified human N-terminal His-tagged PK-M1 by LDH-coupled continuous assay
Target sequence in this assay (P14618 whole entry): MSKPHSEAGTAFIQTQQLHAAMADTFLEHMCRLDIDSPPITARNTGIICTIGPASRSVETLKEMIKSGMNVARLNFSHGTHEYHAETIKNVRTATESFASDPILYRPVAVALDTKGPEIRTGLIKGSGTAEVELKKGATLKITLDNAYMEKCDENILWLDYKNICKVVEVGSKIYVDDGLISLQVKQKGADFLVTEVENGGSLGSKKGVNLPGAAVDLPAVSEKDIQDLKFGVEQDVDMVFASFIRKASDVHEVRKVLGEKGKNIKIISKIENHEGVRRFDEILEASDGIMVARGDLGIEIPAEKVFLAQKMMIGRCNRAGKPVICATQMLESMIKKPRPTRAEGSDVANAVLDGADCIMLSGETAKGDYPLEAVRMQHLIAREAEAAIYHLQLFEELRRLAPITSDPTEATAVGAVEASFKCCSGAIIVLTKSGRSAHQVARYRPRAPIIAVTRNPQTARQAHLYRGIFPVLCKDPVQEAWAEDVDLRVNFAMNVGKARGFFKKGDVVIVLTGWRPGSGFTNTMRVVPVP

[26] = target: T3, Pyruvate kinase PKLR; conditions: 10 uM
Description: Inhibition of purified human N-terminal His-tagged PK-L at 10 uM by LDH-coupled continuous assay

[27] = target: T3, Pyruvate kinase PKLR; conditions: 10 uM; remark: listed apart in the source
Description: Inhibition of purified human N-terminal His-tagged PK-R at 10 uM by LDH-coupled continuous assay

[28] = target: T3, Pyruvate kinase PKLR; assay: Inhibition of purified human N-terminal His-tagged PK-R by LDH-coupled continuous assay
Target sequence in this assay (P30613 whole entry): as the sequence (P30613 whole entry, looked up) above

[29] = target: T2, Pyruvate kinase PKM; assay: Inhibition of purified human N-terminal His-tagged PK-M2 by LDH-coupled continuous assay
Target sequence in this assay (P14618 whole entry): as the sequence (P14618 whole entry) above

[30] = target: T2, Pyruvate kinase PKM; conditions: 10 uM
Description: Inhibition of purified human N-terminal His-tagged PK-M2 at 10 uM by LDH-coupled continuous assay

[31] = target: T2, Pyruvate kinase PKM; conditions: 10 uM; remark: listed apart in the source
Description: Inhibition of purified human N-terminal His-tagged PK-M1 at 10 uM by LDH-coupled continuous assay

O=[N+]([O-])c1cccc2[nH]cc(CCc3c[nH]c4ccccc34)c12
inhibition [1]: 92.8% | inhibition [2]: 2.2% | inhibition [3]: 75.5% | IC50 ([4]; read-out: IC50): 5.7 µM | inhibition [5]: 71.8% | inhibition [6]: 50.1%

COc1ccc2c(CCc3c[nH]c4ccccc34)c[nH]c2c1
IC50 [4]: Not Active

N#Cc1ccc2c(CCc3c[nH]c4ccccc34)c[nH]c2c1
MIC [7]: 16 µg/mL (≈ 56.1 µM) | IC50 [4]: Not Active

Clc1ccc2[nH]cc(CCc3c[nH]c4ccccc34)c2c1
inhibition [8]: 30.8% | inhibition [9]: 98.7% | IC50 ([4]; read-out: IC50): 12.5 µM | inhibition [10]: 114% | inhibition [11]: 103% | inhibition [12]: 95%

Clc1ccc2c(CCc3c[nH]c4ccccc34)c[nH]c2c1
IC50 ([4]; read-out: IC50): 272 µM

Cc1ccc2[nH]cc(CCc3c[nH]c4ccccc34)c2c1
IC50 ([4]; read-out: IC50): 32.8 µM

CCN(C(C)=O)c1ccc2c(CCc3c[nH]c4ccccc34)c[nH]c2c1
IC50 ([4]; read-out: IC50): 148 µM

Fc1ccc2[nH]cc(CCc3c[nH]c4ccccc34)c2c1
inhibition [13]: 101% | IC50 ([4]; read-out: IC50): 19.8 µM | inhibition [14]: 108% | inhibition [15]: 99% | inhibition [16]: 85.5% | inhibition [17]: 55.1%

COc1ccc2[nH]cc(CCc3c[nH]c4ccccc34)c2c1
IC50 ([4]; read-out: IC50): 38.6 µM

FC(F)(F)c1ccc2[nH]cc(CCc3c[nH]c4ccccc34)c2c1
inhibition [8]: 36.7% | inhibition [9]: 95.2% | IC50 ([4]; read-out: IC50): 13.3 µM | inhibition [10]: 88.4% | inhibition [11]: 85.4% | inhibition [12]: 91.4%

N#Cc1ccc2[nH]cc(CCc3c[nH]c4ccccc34)c2c1
inhibition [18]: 62.4% | inhibition [19]: 53.5% | IC50 ([4]; read-out: IC50): 4.2 µM | inhibition [20]: -0.5% | inhibition [21]: 82.9% | inhibition [22]: 1.1%

c1ccc2c(CCc3c[nH]c4ccccc34)c[nH]c2c1
IC50 ([4]; read-out: IC50): 57.3 µM

Cc1ccc2c(CCc3c[nH]c4ccccc34)c[nH]c2c1
IC50 ([4]; read-out: IC50): 294 µM

O=[N+]([O-])c1ccc2c(CCc3c[nH]c4ccccc34)c[nH]c2c1
IC50 [23]: 21.5 µM | inhibition [24]: 59.6% | IC50 [25]: 95.9 µM | IC50 ([4]; read-out: IC50): 0.9 µM | inhibition [26]: 3.3% | inhibition [27]: 3% | IC50 [28]: 18.2 µM | IC50 [29]: 54.6 µM | inhibition [30]: 2.8% | inhibition [31]: 1.1%

Fc1cc(Cl)cc2c(CCc3c[nH]c4ccccc34)c[nH]c12
inhibition [1]: 88.2% | inhibition [2]: 1.1% | inhibition [3]: 95.7% | IC50 ([4]; read-out: IC50): 4.6 µM | inhibition [5]: 85.4% | inhibition [6]: 80.9%

O=C(C(=O)c1c[nH]c2ccccc12)c1c[nH]c2ccccc12
IC50 ([4]; read-out: IC50): 50.2 µM
